According to patent publication US20230414571A1, “APPLICATION OF SMALL-MOLECULE COMPOUND IN PREPARATION OF ANTITUMOR DRUG” (SOOCHOW UNIVERSITY, priority 2021, published 2023):

Columns and labels:
hexokinase 2 (HK2) = biological target: T1, hexokinase 2 (HK2) (Homo sapiens, UniProt P52789); assay: HK2 activity test on GLMSD platform (graphite dots MALDI-MS); assay type: biochemical
T1 sequence (P52789 1-917): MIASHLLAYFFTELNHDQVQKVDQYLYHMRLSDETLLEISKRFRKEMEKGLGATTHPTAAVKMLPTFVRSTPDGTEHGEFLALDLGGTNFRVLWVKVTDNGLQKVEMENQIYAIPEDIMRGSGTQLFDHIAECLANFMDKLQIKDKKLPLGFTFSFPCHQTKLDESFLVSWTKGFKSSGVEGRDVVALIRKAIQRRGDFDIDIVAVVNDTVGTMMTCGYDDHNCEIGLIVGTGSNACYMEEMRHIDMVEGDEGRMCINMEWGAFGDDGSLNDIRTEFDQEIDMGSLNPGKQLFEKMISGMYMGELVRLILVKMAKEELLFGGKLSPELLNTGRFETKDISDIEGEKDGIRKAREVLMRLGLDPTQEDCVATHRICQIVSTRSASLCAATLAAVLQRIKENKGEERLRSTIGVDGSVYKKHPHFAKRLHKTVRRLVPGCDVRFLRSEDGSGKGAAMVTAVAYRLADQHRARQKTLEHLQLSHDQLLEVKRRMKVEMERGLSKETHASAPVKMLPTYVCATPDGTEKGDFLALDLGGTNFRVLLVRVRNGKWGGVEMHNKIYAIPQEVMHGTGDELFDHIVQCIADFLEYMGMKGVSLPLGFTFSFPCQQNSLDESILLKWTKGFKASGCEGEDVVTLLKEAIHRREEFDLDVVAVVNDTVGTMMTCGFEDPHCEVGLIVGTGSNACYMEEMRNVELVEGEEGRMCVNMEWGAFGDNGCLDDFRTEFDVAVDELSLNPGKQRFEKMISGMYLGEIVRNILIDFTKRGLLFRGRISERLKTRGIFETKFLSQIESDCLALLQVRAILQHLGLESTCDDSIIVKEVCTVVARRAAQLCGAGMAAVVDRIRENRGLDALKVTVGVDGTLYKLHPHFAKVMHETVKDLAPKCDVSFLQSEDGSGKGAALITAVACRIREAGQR
Protocol: GDs were dispersed in water at a concentration of 1 mg/mL as a matrix solution to be used. A sample was prepared by using a quick-drying method: firstly, 1 μL of matrix solution was dropped onto a target plate, and after natural drying at a room temperature in a […], 1 μL of sample to be analyzed was dropped onto a surface of the dried matrix, and after the sample was naturally dried, mass spectrometry was directly performed:
An instrument in the MALDI-MS was a Bruker Ultraflex III TOF/TOF mass spectrometer, which was mainly in a reflection positive and negative ion mode. Nd of 355 nm for instrument parameter: YAG laser had laser energy of 30% corresponding to 57 μJ per pulse (laser pulse duration: 3 ns), a laser spot size was about 50-100 μm, each sample was repeatedly tested four times, and 3000 laser spots were accumulated in each mass spectrum. All samples were measured under the same instrumental conditions.
an inhibition rate=(1−B/A)×100%, where • A was: a glucose concentration in a pre-reaction solution without the inhibitor-a glucose concentration in a post-reaction solution without the inhibitor, • B was: a glucose concentration in a pre-reaction solution with the inhibitor-a glucose concentration in a post-reaction solution with the inhibitor, and • a glucose concentration in the reaction solution=(mass spectrum signal strength of [glucose+Na]+/mass spectrum signal strength of [glucose-1-^13C+Na]+)×known concentration of glucose-1-^13C.

U87 cells = assay: Flow cytometry analysis of U87 cell apoptosis (Annexin V-FITC/PI staining); assay type: cell-based; details: 20 μM, 24 hours
Protocol: In a dulbecco's modified eagle medium (DMEM), 5×10^5 U87 cells were inoculated into a 24-hole plate. After culturing for 24 hours, compound 27 (final concentration 20 μM) was directly added to a cell growth medium, incubated at 37° C. for 24 hours, briefly digested with trypsin, washed twice with cold PBS, centrifuged (2000 rpm, 5 min) and washed twice with cold PBS after a supernatant culture medium was discarded. The cells (1×10^5 cells/mL) were resuspended with a 400 μL of buffer solution (1×). 5 μL of Annexin V-FITC was added to the cell suspension and cultured at 4° C. for 15 minutes. Then, the cells were gently mixed with another dye propidium iodide (PI) (10 μL). The cells were collected for flow cytometry analysis. Data analysis was performed by using a CFLow Plus (Accuri Cytometers).
In order to further confirm the occurrence of apoptosis, the applicant tested the exposed phosphatidylserine by using an annexin V/propidium iodide double staining method, and observed a cell membrane damage phenomenon.

## CCOc1ccc(C(=O)NCCCN(C)CCCN(C)Cc2ccccc2)cc1Br [compound 27]
Hexokinase 2 (HK2); inhibition curves FIGS. 3-7, colorimetric kit and GLMSD
  inhibitory effect on the HK2: good inhibitory effects
Hexokinase 2 (HK2); small-molecule concentration of the inhibitor 20 μM, GLMSD, read-out: inhibition rate of HK2 activity
  inhibition at 20 µM: 31%
U87 cells
  early (Annexin+/PI−) apoptotic cells: 31.2%
  late (Annexin+/PI+) apoptotic cells: 30.6%
